Laboratory results: US20110245284A1, “Alkoxy- and Alkylthio-Substituted Anilinopyrimidines” (Bayer CropScience AG, priority 2008, published 2011)

Test system: not listed separately
Assay: logP by LC-MS on reversed-phase columns (C 18), method [b], acidic range pH 2.7
Format: physicochemical
Settings: method [b], LC-MS, acidic range pH 2.7
Protocol: The logP values were determined in accordance with EEC Directive 79/831 Annex V.A8 by HPLC (High Performance Liquid Chromatography) on reversed-phase columns (C 18), using the methods below:
[b] The LC-MS determination in the acidic range is carried out at pH 2.7 using the mobile phases 0.1% aqueous formic acid and acetonitrile (contains 0.1% formic acid), linear gradient from 10% acetonitrile to 95% acetonitrile.

| Structure (SMILES) | log p |
| --- | --- |
| O=S(=O)(CCCl)c1cc(Nc2ncc(Cl)c(NC3CC3)n2)ccc1Cl [Example 49] | 2.67[b] |
| COCc1cccc(Nc2ncc(Br)c(NC3CC(C)C3)n2)c1 (stereo not drawn) [Example 200] | 2.55[b] |
| CCOCCOc1cc(Nc2ncc(Cl)c(NC3CC3)n2)ccc1C [Example 48] | 2.23[b] |
| CCC1CC1Nc1nc(Nc2cccc(C(C)OC)c2)ncc1Cl (stereo not drawn) [Example 197] | 2.76[b] |
| COC(C)c1cccc(Nc2ncc(Br)c(NC3CC(C)C3)n2)c1 (stereo not drawn) [Example 212] | 2.84[b] |
| CCSC(C)c1cccc(Nc2ncc(Cl)c(NC3CC3CC)n2)c1 (stereo not drawn) [Example 196] | 3.99[b] |

Same assay, conditions: pH 2.7

| Structure (SMILES) | log p |
| --- | --- |
| FC(F)(F)c1cnc(Nc2cccc(COc3ccc4c(c3)OCO4)c2)nc1NC1CC1 [Example 227] | 3.9[b] |
| C=C(C)CSc1cccc(Nc2ncc(Br)c(NC3CC3)n2)c1 [Example 3] | 4.25[b] |
| COCC(C)Oc1ccc(Nc2ncc(Cl)c(NC3CC3C(F)(F)F)n2)cc1 (stereo not drawn) [Example 221] | 2.48[b] |
| CCOCCOCc1cccc(Nc2ncc(C(F)(F)F)c(NC3CC3)n2)c1 [Example 253] | 2.73[b] |
| CCS(=O)(=O)C(C)c1cccc(Nc2ncc(C(F)(F)F)c(NC3CC3)n2)c1 (stereo not drawn) [Example 46] | 2.49[b] |
| COCc1cc(COC)cc(Nc2ncc(Cl)c(NC3CCC3)n2)c1 [Example 47] | 2.06[b] |
| C=C(C)CSc1cccc(Nc2ncc(Cl)c(NC3CC3)n2)c1 [Example 38] | 3.59[b] |
| CS(=O)(=O)Cc1cccc(Nc2ncc(Cl)c(NC3CC3C(F)(F)F)n2)c1 (stereo not drawn) [Example 222] | 1.96[b] |
| CCSC(C)c1cccc(Nc2ncc(Cl)c(NC3CCC3)n2)c1 (stereo not drawn) [Example 11] | 3.25[b] |
| FC(F)C(F)(F)COCc1cccc(Nc2ncc(C(F)(F)F)c(NC3CC3)n2)c1 [Example 231] | 3.7[b] |
| COC(c1cccc(Nc2ncc(Cl)c(NC3CCC3)n2)c1)C(F)(F)F (stereo not drawn) [Example 21] | 2.99[b] |
| COCc1cccc(Nc2ncc(Cl)c(N3CCCCCC3)n2)c1 [Example 139] | 2.88[b] |
| COCc1cccc(Nc2ncc(Cl)c(NC3CC3C(F)(F)F)n2)c1 (stereo not drawn) [Example 208] | 2.64[b] |
| CCSC(C)c1cccc(Nc2ncc(Br)c(NC3CC(C)C3)n2)c1 (stereo not drawn) [Example 214] | 3.85[b] |
| FC(F)C(F)(F)COCc1cccc(Nc2ncc(Cl)c(NC3CC3)n2)c1 [Example 232] | 2.69[b] |
| COCCOCCOc1ccc(Nc2ncc(Cl)c(NC3CC3)n2)cc1Cl [Example 173] | 2.12[b] |
| CCS(=O)(=O)C(C)c1cccc(Nc2ncc(C(F)(F)F)c(NC3CCCC3)n2)c1 (stereo not drawn) [Example 39] | 3.27[b] |
| CCOCCOCc1cccc(Nc2ncc(Cl)c(NC3CC3)n2)c1 [Example 252] | 2.51[b] |
| CC[S+]([O-])C(C)c1cccc(Nc2ncc(C(F)(F)F)c(NCC3CC3)n2)c1 (stereo not drawn) [Example 44] | 2.3[b] |

| Structure (SMILES) | log p |
| --- | --- |
| CCCN(c1nc(Nc2cccc(COC)c2)ncc1Cl)C1CC1 [Example 136] | 3.68[b] |
| COCCOc1cccc(Nc2ncc(Cl)c(NC3CC3C(F)(F)F)n2)c1 (stereo not drawn) [Example 210] | 2.66[b] |
| COCC(C)Oc1ccc(Nc2ncc(Br)c(NC3CC(C)C3)n2)cc1 (stereo not drawn) [Example 213] | 2.27[b] |
| COCCOCCOc1ccc(Nc2ncc(Br)c(NC3CC3)n2)cc1 [Example 2] | 1.69[b] |
| CCSC(C)c1cccc(Nc2ncc(C(F)(F)F)c(NC3CCC3)n2)c1 (stereo not drawn) [Example 36] | 4.75[b] |
| CCSC(C)c1cccc(Nc2ncc(Cl)c(NC3CC3C(F)(F)F)n2)c1 (stereo not drawn) [Example 223] | 3.93[b] |
| FC(F)(F)COCc1cccc(Nc2ncc(Cl)c(NC3CC3)n2)c1 [Example 224] | 2.56[b] |
| CCS(=O)(=O)C(C)c1cccc(Nc2ncc(Br)c(NC3CCC3)n2)c1 (stereo not drawn) [Example 153] | 2.03[b] |
| COCc1cccc(Nc2ncc(Cl)c(N(C)CCCN3CCCCCC3=O)n2)c1 [Example 69] | 1.91[b] |
| COCCOCCOc1ccc(Nc2ncc(C(F)(F)F)c(NC3CC3)n2)cc1Cl [Example 156] | 3.2[b] |
| COCC(C)Oc1ccc(Nc2ncc(Cl)c(NC3CC3)n2)cc1C(F)(F)F (stereo not drawn) [Example 72] | 2.91[b] |
| COC(c1cccc(Nc2ncc(Cl)c(NCC(F)F)n2)c1)C(F)(F)F (stereo not drawn) [Example 23] | 2.93[b] |
| CC[S+]([O-])C(C)c1cccc(Nc2ncc(C(F)(F)F)c(NC3CCCC3)n2)c1 (stereo not drawn) [Example 42] | 2.87[b] |
| COCC(C)Oc1ccc(Nc2ncc(Br)c(NC3CC3)n2)cc1Cl (stereo not drawn) [Example 4] | 2.75[b] |
| CCCC(C)S(=O)(=O)C(C)c1cccc(Nc2ncc(C(F)(F)F)c(NC3CC3)n2)c1 (stereo not drawn) [Example 168] | 3.47[b] |
| CCS(=O)(=O)c1ccc(Nc2ncc(C(F)(F)F)c(NC3CC3)n2)cc1 [Example 55] | 2.66[b] |
| Fc1cccc(Nc2ncc(Cl)c(NC3CC3)n2)c1 [Example 86] | 1.87[b] |
| CCS(=O)(=O)C(C)c1cccc(Nc2ncc(C(F)(F)F)c(NCC3CC3)n2)c1 (stereo not drawn) [Example 41] | 2.65[b] |
| COC(c1cccc(Nc2ncc(Br)c(NC3CCC3)n2)c1)C(F)(F)F (stereo not drawn) [Example 10] | 3[b] |

Same assay, conditions: pH 2.7, log p

| chromatographic logP | Structure (SMILES) |
| --- | --- |
| 2.81 | CCCS(=O)(=O)c1cccc(Nc2ncc(Br)c(NC3CCC3)n2)c1 [Example 159] |
| 2.37 | CCC(C)CNc1nc(Nc2cccc(COC)c2)ncc1Cl (stereo not drawn) [Example 145] |
| 3 | CCN(c1nc(Nc2cccc(COC)c2)ncc1Cl)C(C)C [Example 140] |
| 3.72 | CCOCCOc1ccc(Nc2ncc(C(F)(F)F)c(NC3CC3)n2)cc1Cl [Example 184] |
| 2.48 | COCc1cccc(Nc2ncc(Cl)c(NCC(C)(C)C)n2)c1 [Example 142] |
| 4.13 | COC(C)c1cccc(Nc2ncc(C(F)(F)F)c(NC3CCCC3)n2)c1 (stereo not drawn) [Example 17] |
| 2.72 | FC(F)(F)OCCOc1cccc(Nc2ncc(Cl)c(NC3CC3)n2)c1 [Example 241] |
| 2.03 | CCOCCOCc1cccc(Nc2ncc(Cl)c(NC3CC3)n2)c1 [Example 248] |
| 4.48 | CSC(C)c1cccc(Nc2ncc(C(F)(F)F)c(NC3CCCC3)n2)c1 (stereo not drawn) [Example 16] |
| 2.37 | COCc1cccc(Nc2ncc(Cl)c(NCCC(C)C)n2)c1 [Example 146] |
| 2.14 | COCCOc1ccc(Nc2ncc(C(F)(F)F)c(NC3CC3)n2)cc1C [Example 157] |
| 2.55 | CCCN(C)c1nc(Nc2cccc(COC)c2)ncc1Cl [Example 141] |
| 3.17 | CCOCCOCc1cccc(Nc2ncc(C(F)(F)F)c(NC3CC3)n2)c1 [Example 250] |
| 2.41 | CCCCCNc1nc(Nc2cccc(COC)c2)ncc1Cl [Example 147] |
| 1.43 | COCCOc1ccc(Nc2ncc(Cl)c(NC3CC3)n2)cc1C [Example 174] |
| 2.04 | CCS(=O)(=O)c1ccc(Nc2ncc(Cl)c(NC3CC3)n2)cc1 [Example 54] |
| 4.09 | CCOCCOc1ccc(Nc2ncc(C(F)(F)F)c(NC3CC3)n2)cc1C(F)(F)F [Example 186] |
| 2.41 | CCCC(C)Nc1nc(Nc2cccc(COC)c2)ncc1Cl (stereo not drawn) [Example 143] |

Test system: Leptosphaeria nodorum
Assay: Leptosphaeria nodorum test (wheat) / protective
Format: in vivo
Settings: Parastagonospora nodorum, active compound concentration 500 ppm, evaluation 7-9 days after inoculation, read-out: efficacy
Protocol: Thereafter, the plants are placed in a greenhouse at 90% relative atmospheric humidity and a temperature of 22° C.

| Structure (SMILES) | pest or weed control at 500 ppm |
| --- | --- |
| CCCS(=O)(=O)c1cccc(Nc2ncc(Br)c(NC3CCC3)n2)c1 [Example 159] | ≥ 70% |
| COCc1cccc(Nc2ncc(Cl)c(NCC(C)(C)C)n2)c1 [Example 142] | ≥ 70% |
| COC(C)c1cccc(Nc2ncc(C(F)(F)F)c(NC3CCCC3)n2)c1 (stereo not drawn) [Example 17] | ≥ 70% |
| CSC(C)c1cccc(Nc2ncc(C(F)(F)F)c(NC3CCCC3)n2)c1 (stereo not drawn) [Example 16] | ≥ 70% |
